Laboratory results published in PubChem BioAssay AID1919007 (Molecular Pharmacology Branch, DTP, NCI, 2023).

System: A498 complex spheroids with HUVEC/MSC, growth
Experiment: Anticancer human tumor A498 cell line growth inhibition [AhR];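 also: seven day exposure starting three days after spheroid seeding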;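 as to viability, T/C: luminescence signal used as a surrogate for viable cells; luminescence viability scaled so 100% equals DMSO vehicle wells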
Settings: for IC50: curve of first compound; for viability, T/C: stronger effect = lower value
Outline: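 Spheroids combined tumor cells with HUVEC endothelial cells and human MSCs as stroma. AhR antagonists were paired with standard or investigational drugs, each dosed in half-log steps down from near clinical Cmax, or from 10 microM where Cmax was unknown.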

[1] = second compound 0.1 µM, first compound 0.0316 µM
[2] = second compound 0.1 µM, first compound 0.1 µM
[3] = second compound 0.1 µM, first compound 0.316 µM
[4] = second compound 0.1 µM, first compound 1 µM
[5] = second compound 0.1 µM, first compound 3.16 µM
[6] = second compound 0.1 µM, first compound 10 µM
[7] = second compound 0.316 µM, first compound 0.0316 µM
[8] = second compound 0.316 µM, first compound 0.1 µM
[9] = second compound 0.316 µM, first compound 0.316 µM
[10] = second compound 0.316 µM, first compound 1 µM
[11] = second compound 0.316 µM, first compound 3.16 µM
[12] = second compound 0.316 µM, first compound 10 µM
[13] = second compound 1 µM, first compound 0.0316 µM
[14] = second compound 1 µM, first compound 0.1 µM
[15] = second compound 1 µM, first compound 0.316 µM
[16] = second compound 1 µM, first compound 1 µM
[17] = second compound 1 µM, first compound 3.16 µM
[18] = second compound 1 µM, first compound 10 µM
[19] = second compound 3.16 µM, first compound 0.0316 µM
[20] = second compound 3.16 µM, first compound 0.1 µM
[21] = second compound 3.16 µM, first compound 0.316 µM
[22] = second compound 3.16 µM, first compound 1 µM
[23] = second compound 3.16 µM, first compound 3.16 µM
[24] = second compound 3.16 µM, first compound 10 µM
[25] = second compound 10 µM, first compound 0.0316 µM
[26] = second compound 10 µM, first compound 0.1 µM
[27] = second compound 10 µM, first compound 0.316 µM
[28] = second compound 10 µM, first compound 1 µM
[29] = second compound 10 µM, first compound 3.16 µM
[30] = second compound 10 µM, first compound 10 µM

`Nc1ccccc1NC(=O)c1ccc(CNC(=O)OCc2cccnc2)cc1` + Cc1cncc(-c2nc(NCCc3c[nH]c4ccccc34)c3ncn(C(C)C)c3n2)c1 gave an IC50 (second compound 0.1 µM) of 1220 nM, an IC50 (second compound 0.316 µM) of 1260 nM and an IC50 (second compound 1 µM) of 1150 nM. For the same molecule, the IC50 (second compound 3.16 µM) was 221 nM, the IC50 (second compound 10 µM) was under 31.6 nM and the viability, T/C [1] was 82.6%. It also gave a viability, T/C [2] of 79.7%, a viability, T/C [3] of 70.5% and a viability, T/C [4] of 57.8%. It also gave a viability, T/C [5] of 23%, a viability, T/C [6] of 2.08% and a viability, T/C [7] of 83.6%. The viability, T/C [8] was 84%, the viability, T/C [9] was 84% and the viability, T/C [10] was 53.7%. For the same molecule, the viability, T/C [11] was 24%, the viability, T/C [12] was 1.77% and the viability, T/C [13] was 83.8%. The viability, T/C [14] was 78.5%, the viability, T/C [15] was 72.8% and the viability, T/C [16] was 56.1%. It also gave a viability, T/C [17] of 18.1%, a viability, T/C [18] of 2.18% and a viability, T/C [19] of 50.4%. The viability, T/C [20] was 49.9%, the viability, T/C [21] was 51.5% and the viability, T/C [22] was 41.2%. The viability, T/C [23] was 16.9%, the viability, T/C [24] was 1.1% and the viability, T/C [25] was 3.86%. For the same molecule, the viability, T/C [26] was 3.69%, the viability, T/C [27] was 2.11% and the viability, T/C [28] was 1.29%. The viability, T/C [29] was 0.5% and the viability, T/C [30] was 0.86%.
For `Nc1ncn(C2CC(O)C(CO)S2)c(=O)n1` (stereo not given) + CC(CO)NC(=O)c1cc(-c2ccc(Cl)cc2)nn(-c2cnn(C)c2)c1=O, the IC50 (second compound 0.1 µM) was over 300 nM, the IC50 (second compound 0.316 µM) was over 300 nM and the IC50 (second compound 1 µM) was over 300 nM. The IC50 (second compound 3.16 µM) was over 300 nM, the IC50 (second compound 10 µM) was over 300 nM and the viability, T/C (second compound 0.1 µM, first compound 0.000949 µM) was 98%. The viability, T/C (second compound 0.1 µM, first compound 0.003 µM) was 101%, the viability, T/C (second compound 0.1 µM, first compound 0.00949 µM) was 96.3% and the viability, T/C (second compound 0.1 µM, first compound 0.03 µM) was 93.8%. For the same molecule, the viability, T/C (second compound 0.1 µM, first compound 0.0949 µM) was 83.6%, the viability, T/C (second compound 0.1 µM, first compound 0.3 µM) was 68.8% and the viability, T/C (second compound 0.316 µM, first compound 0.000949 µM) was 93%. It also gave a viability, T/C (second compound 0.316 µM, first compound 0.003 µM) of 109%, a viability, T/C (second compound 0.316 µM, first compound 0.00949 µM) of 95.5% and a viability, T/C (second compound 0.316 µM, first compound 0.03 µM) of 86%. The viability, T/C (second compound 0.316 µM, first compound 0.0949 µM) was 83.4%, the viability, T/C (second compound 0.316 µM, first compound 0.3 µM) was 72.1% and the viability, T/C (second compound 1 µM, first compound 0.000949 µM) was 96.5%. The viability, T/C (second compound 1 µM, first compound 0.003 µM) was 99%, the viability, T/C (second compound 1 µM, first compound 0.00949 µM) was 98.2% and the viability, T/C (second compound 1 µM, first compound 0.03 µM) was 92.5%. It also gave a viability, T/C (second compound 1 µM, first compound 0.0949 µM) of 87.4%, a viability, T/C (second compound 1 µM, first compound 0.3 µM) of 70.3% and a viability, T/C (second compound 3.16 µM, first compound 0.000949 µM) of 87.5%. It also gave a viability, T/C (second compound 3.16 µM, first compound 0.003 µM) of 90.9%, a viability, T/C (second compound 3.16 µM, first compound 0.00949 µM) of 105% and a viability, T/C (second compound 3.16 µM, first compound 0.03 µM) of 76.6%. For the same molecule, the viability, T/C (second compound 3.16 µM, first compound 0.0949 µM) was 69.7%, the viability, T/C (second compound 3.16 µM, first compound 0.3 µM) was 70.6% and the viability, T/C (second compound 10 µM, first compound 0.000949 µM) was 74.9%. For the same molecule, the viability, T/C (second compound 10 µM, first compound 0.003 µM) was 78.3%, the viability, T/C (second compound 10 µM, first compound 0.00949 µM) was 78.3% and the viability, T/C (second compound 10 µM, first compound 0.03 µM) was 71.9%. It also gave a viability, T/C (second compound 10 µM, first compound 0.0949 µM) of 65% and a viability, T/C (second compound 10 µM, first compound 0.3 µM) of 59.3%.
`COc1cc(C2c3cc4c(cc3C(OC3OC5COC(C)OC5C(O)C3O)C3COC(=O)C23)OCO4)cc(OC)c1O` (stereo not given) + Cc1ccccc1N=Nc1ccc(NC(=O)c2ccnn2C)c(C)c1 showed an IC50 (second compound 0.1 µM) of over 10000 nM, an IC50 (second compound 0.316 µM) of over 10000 nM and an IC50 (second compound 1 µM) of over 10000 nM. The IC50 (second compound 3.16 µM) was 7600 nM, the IC50 (second compound 10 µM) was 8760 nM and the viability, T/C [1] was 73.9%. It also gave a viability, T/C [2] of 68%, a viability, T/C [3] of 63.5% and a viability, T/C [4] of 64.6%. The viability, T/C [5] was 61.3%, the viability, T/C [6] was 49.2% and the viability, T/C [7] was 85%. The viability, T/C [8] was 76.9%, the viability, T/C [9] was 77.4% and the viability, T/C [10] was 66.7%. It also gave a viability, T/C [11] of 59.5%, a viability, T/C [12] of 53.2% and a viability, T/C [13] of 75.3%. It also gave a viability, T/C [14] of 71.1%, a viability, T/C [15] of 67.5% and a viability, T/C [16] of 63.4%. For the same molecule, the viability, T/C [17] was 52.9%, the viability, T/C [18] was 52.7% and the viability, T/C [19] was 72.9%. It also gave a viability, T/C [20] of 68.7%, a viability, T/C [21] of 72.6% and a viability, T/C [22] of 62.8%. It also gave a viability, T/C [23] of 55.4%, a viability, T/C [24] of 48.6% and a viability, T/C [25] of 74.8%. It also gave a viability, T/C [26] of 73.1%, a viability, T/C [27] of 77.2% and a viability, T/C [28] of 66.7%. It also gave a viability, T/C [29] of 61.5% and a viability, T/C [30] of 48.5%.
